Test results from patent publication US11591336B2 (Relay Therapeutics, Inc., priority 2017, dated 2023).
Counter-ions that a name gives are not always drawn.

Target: SHP2 (Homo sapiens (Human), UniProt Q06124)
Experiment: SHP2 Allosteric Inhibition Assay (DiFMUP prompt fluorescence)
Type: biochemical
Conditions: 0.25 nM SHP2 activated with 0.5 μM peptide IRS1_pY1172(dPEG8)pY1222; substrate DiFMUP 100 μM; 25° C.

Sequence of SHP2 (Q06124 whole entry): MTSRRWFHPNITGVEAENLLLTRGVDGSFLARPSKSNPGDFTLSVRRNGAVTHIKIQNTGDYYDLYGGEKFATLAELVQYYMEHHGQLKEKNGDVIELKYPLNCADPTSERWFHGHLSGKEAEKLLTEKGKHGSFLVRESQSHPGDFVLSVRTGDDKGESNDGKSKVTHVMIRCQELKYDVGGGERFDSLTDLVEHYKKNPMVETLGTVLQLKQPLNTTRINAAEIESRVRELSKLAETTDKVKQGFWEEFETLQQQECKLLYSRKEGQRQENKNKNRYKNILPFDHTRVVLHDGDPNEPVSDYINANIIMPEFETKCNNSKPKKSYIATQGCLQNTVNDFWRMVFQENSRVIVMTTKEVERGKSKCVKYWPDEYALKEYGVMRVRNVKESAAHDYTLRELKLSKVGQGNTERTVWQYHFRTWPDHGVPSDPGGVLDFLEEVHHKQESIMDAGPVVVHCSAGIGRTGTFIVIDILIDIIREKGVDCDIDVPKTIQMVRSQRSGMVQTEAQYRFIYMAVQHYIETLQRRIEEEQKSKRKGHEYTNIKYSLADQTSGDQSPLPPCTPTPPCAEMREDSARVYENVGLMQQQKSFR

Row | SMILES | IC50
1 | N[C@@H]1C[C@H](O)CC12CCN(c1cnc3c(N4CCCc5ncccc54)n[nH]c3n1)CC2 [Compound 467, (2R,4R)-4-amino-8-[3-(1,2,3,4-tetrahydro-1,5-naphthyridin-1-yl)-1H-pyrazolo[3,4-b]pyrazin-6-yl]-8-azaspiro[4.5]decan-2-ol] | < 1000 nM
2 | NC1=NC2(CCN(c3cnc4c(N5CCCc6ncccc65)n[nH]c4n3)CC2)CO1 [Compound 216, 8-(3-(3,4-dihydro-1,5-naphthyridin-1(2H)-yl)-1H-pyrazolo[3,4-b]pyrazin-6-yl)-3-oxa-1,8-diazaspiro[4.5]dec-1-en-2-amine hydrochloride] | < 1000 nM
3 | CC1(CN)CCN(c2cnc3c(N4CCC(C#N)c5ccccc54)n[nH]c3n2)CC1 (stereo not shown) [Compound 117] | < 1000 nM
4 | C[C@@H]1OCC2(CCN(c3cnc4c(N5CCCc6ccccc65)n[nH]c4n3)CC2)[C@@H]1N [Compound 355] | < 1000 nM
5 | CC(C)c1cccc2c1CCCN2c1n[nH]c2nc(N3CCC(C)(CN)CC3)cnc12 [Compound 91] | < 1000 nM
6 | C[C@@H]1OCC2(CCN(c3cnc4c(N5CCN(C)c6cc(-c7ncco7)ccc65)n[nH]c4n3)CC2)[C@@H]1N [Compound 395] | < 1000 nM
7 | CC1(CN)CCN(c2cnc3c(N4CCNc5ccccc54)n[nH]c3n2)CC1 [Compound 190] | < 1000 nM
8 | C[C@@H]1OCC2(CCN(c3cnc4c(N5CCNc6cc(-c7cnn(C)c7)ccc65)n[nH]c4n3)CC2)[C@@H]1N [Compound 316, (3S,4S)-3-methyl-8-{3-[6-(1-methyl-1H-pyrazol-4-yl)-1,2,3,4-tetrahydroquinoxalin-1-yl]-1H-pyrazolo[3,4-b]pyrazin-6-yl}-2-oxa-8-azaspiro[4.5]decan-4-amine] | < 1000 nM
9 | CC1CCc2ccccc2N1c1n[nH]c2nc(N3CCC(C)(N)CC3)cnc12 (stereo not shown) [Compound 34] | < 1000 nM
10 | COc1nccc(Sc2n[nH]c3nc(N4CCC(C)(N)CC4)cnc23)c1Cl [Compound 479, 1-(3-((3-chloro-2-methoxypyridin-4-yl)thio)-1H-pyrazolo[3,4-b]pyrazin-6-yl)-4-methylpiperidin-4-amine] | < 1000 nM
11 | CN=[S@@](C)(=O)c1cccc2c1CCCN2c1n[nH]c2nc(N3CCC4(CC3)CO[C@@H](C)[C@H]4N)cnc12 [Compound 420] | < 1000 nM
12 | CC1(CN)CCN(c2cnc3c(C(C)(O)c4ccccc4)n[nH]c3n2)CC1 (stereo not shown) [Compound 19, 1-(6-(4-(aminomethyl)-4-methylpiperidin-1-yl)-1H-pyrazolo[3,4-b]pyrazin-3-yl)-1-phenylethanol] | 1000 to 10000 nM
13 | CC1(N)CCN(c2cnc3c(N4CCOc5ncccc54)n[nH]c3n2)CC1 [Compound 31] | < 1000 nM
14 | CNC(=O)N1CCN(c2n[nH]c3nc(N4CCC5(CC4)CO[C@@H](C)[C@H]5N)cnc23)c2ccccc21 [Compound 342] | < 1000 nM
15 | C[C@@H]1OCC2(CCN(c3cnc4c(N5CCC(C(F)F)c6cc(C#N)ccc65)n[nH]c4n3)CC2)[C@@H]1N (stereo partly shown) [Compound 283] | < 1000 nM
16 | OC1CCCN(c2cnc3c(N4CCCc5ncccc54)n[nH]c3n2)C1 (stereo not shown) [Compound 143] | ≥ 10000 nM
17 | C[C@@H]1OCC2(CCN(c3cnc4c(N5CCN(C67CC(F)(C6)C7)c6cc(C#N)ccc65)n[nH]c4n3)CC2)[C@@H]1N [Compound 532] | < 1000 nM
18 | C[C@@H]1CCN(c2n[nH]c3nc(N4CCC5(CC4)CO[C@@H](C)[C@H]5N)cnc23)c2ccc(-c3ncc[nH]3)nc21 (relative stereo) [Compound 448, (3S,4S)-8-{3-[(4R*)-6-(1H-imidazol-2-yl)-4-methyl-1,2,3,4-tetrahydro-1,5-naphthyridin-1-yl]-1H-pyrazolo[3,4-b]pyrazin-6-yl)-3-methyl-2-oxa-8-azaspiro[4.5]decan-4-amine hydrochloride] | < 1000 nM
19 | CC1(N)CCN(c2cnc3c(N4CCc5ccccc54)n[nH]c3n2)CC1 [Compound 21] | < 1000 nM
20 | Cc1nnc(-c2c(Cl)ccc3c2CCCN3c2n[nH]c3nc(N4CCC5(CC4)CO[C@@H](C)[C@H]5N)cnc23)o1 [Compound 429, (3S,4S)-8-{3-[6-chloro-5-(5-methyl-1,3,4-oxadiazol-2-yl)-1,2,3,4-tetrahydroquinolin-1-yl]-1H-pyrazolo[3,4-b]pyrazin-6-yl}-3-methyl-2-oxa-8-azaspiro[4.5]decan-4-amine] | < 1000 nM
21 | C[S+]([O-])c1cccc2c1CCCN2c1n[nH]c2nc(N3CCC(C)(CN)CC3)cnc12 (stereo not shown) [Compound 192] | < 1000 nM
22 | CN(C)C(=O)c1cccc2c1CCCN2c1n[nH]c2nc(N3CCC(C)(CN)CC3)cnc12 [Compound 80, 1-(6-(4-(Aminomethyl)-4-methylpiperidin-1-yl)-1H-pyrazolo[3,4-b]pyrazin-3-yl)-N,N-dimethyl-1,2,3,4-tetrahydroquinoline-5-carboxamide] | < 1000 nM
23 | C[C@@H]1OCC2(CCN(c3cnc4c(N5CCc6cccnc6C5)n[nH]c4n3)CC2)[C@@H]1N [Compound 271] | < 1000 nM
24 | C[C@H]1CCN(c2n[nH]c3nc(N4CCC(C)(CN)CC4)cnc23)c2ccccc21 [Compound 50, (S)-(4-methyl-1-(3-(4-methyl-3,4-dihydroquinolin-1(2H)-yl)-1H-pyrazolo[3,4-b]pyrazin-6-yl)piperidin-4-yl)methanamine] | < 1000 nM
25 | C[C@@H]1OCC2(CCN(c3cnc4c(N5CCC(C(F)F)c6ccccc65)n[nH]c4n3)CC2)[C@@H]1N (stereo partly shown) [Compound 250] | < 1000 nM

Row | SMILES | IC50
26 | C[C@@H]1Cc2ccccc2N1c1n[nH]c2nc(N3CCC(C)(CN)CC3)cnc12 [Compound 135] | < 1000 nM
27 | Cn1cc(-c2nccc(Oc3n[nH]c4nc(N5CCC(C)(CN)CC5)cnc34)c2Cl)cn1 [Compound 506, (1-(3-((3-chloro-2-(1-methyl-1H-pyrazol-4-yl)pyridin-4-yl)oxy)-1H-pyrazolo[3,4-b]pyrazin-6-yl)-4-methylpiperidin-4-yl)methanamine] | < 1000 nM
28 | C[C@@H]1OCC2(CCN(c3cnc4c(N5CCCc6c5ccnc6-c5ccnn5C)n[nH]c4n3)CC2)[C@@H]1N [Compound 303] | < 1000 nM
29 | CC1(CNC(=O)OCCSSCCOC(=O)NCC2(C)CCN(c3cnc4c(N5CCCc6ncccc65)n[nH]c4n3)CC2)CCN(c2cnc3c(N4CCCc5ncccc54)n[nH]c3n2)CC1 [Compound 166, disulfanediylbis(ethane-2,1-diyl) bis(((1-(3-(3,4-dihydro-1,5-naphthyridin-1(2H)-yl)-1H-pyrazolo[3,4-b]pyrazin-6-yl)-4-methylpiperidin-4-yl)methyl)carbamate)] | < 1000 nM
30 | CC1(CN)CCN(c2cnc3c(Nc4ccnc(N)c4Cl)n[nH]c3n2)CC1 [Compound 498, N^4-(6-(4-(aminomethyl)-4-methylpiperidin-1-yl)-1H-pyrazolo[3,4-b]pyrazin-3-yl)-3-chloropyridine-2,4-diamine] | < 1000 nM
31 | C[C@@H]1OCC2(CCN(c3cnc4c(N5CCNc6ncccc65)n[nH]c4n3)CC2)[C@@H]1N [Compound 247] | < 1000 nM
32 | CC1(CN)CCN(c2cnc3c(N4CCC(c5ccccc5)c5ccccc54)n[nH]c3n2)CC1 (stereo not shown) [Compound 96] | < 1000 nM
33 | NC(=O)C1CCCN(c2cnc3c(N4CCCc5ncccc54)n[nH]c3n2)C1 (stereo not shown) [Compound 149] | ≥ 10000 nM
34 | CC1(CN)CCN(c2cnc3c(N4CCCc5cc(C(F)(F)F)ccc54)n[nH]c3n2)CC1 [Compound 63] | < 1000 nM
35 | C[C@@H]1OCC2(CCN(c3cnc4c(N5CCCc6nc(N7CC[C@H](O)C7)ccc65)n[nH]c4n3)CC2)[C@@H]1N [Compound 261, (3S)-1-(5-{6-[(3S,4S)-4-amino-3-methyl-2-oxa-8-azaspiro[4.5]decan-8-yl]-1H-pyrazolo[3,4-b]pyrazin-3-yl}-5,6,7,8-tetrahydro-1,5-naphthyridin-2-yl)pyrrolidin-3-ol] | < 1000 nM
36 | CC1(N)CCN(c2cnc3c(N4CCNc5ccccc54)n[nH]c3n2)CC1 [Compound 29] | 1000 to 10000 nM
37 | C[C@@H]1OCC2(CCN(c3cnc4c(N5CCCc6c(CN7CCOCC7)cccc65)n[nH]c4n3)CC2)[C@@H]1N [Compound 458] | < 1000 nM
38 | CC1Cc2ccccc2C(=O)N1c1n[nH]c2nc(N3CCC4(CC3)CO[C@@H](C)[C@H]4N)cnc12 (stereo partly shown) [Compound 385] | ≥ 10000 nM
39 | CC1c2ccccc2CCN1c1n[nH]c2nc(N3CCC4(CC3)CO[C@@H](C)[C@H]4N)cnc12 (stereo partly shown) [Compound 357] | < 1000 nM
40 | C[C@@H]1CCN(c2n[nH]c3nc(N4CCC(C)(CN)CC4)cnc23)c2ccc(-c3nnc[nH]3)nc21 [Compound 199, 1-(4-methyl-1-{3-[(4R)-4-methyl-6-(4H-1,2,4-triazol-3-yl)-1,2,3,4-tetrahydro-1,5-naphthyridin-1-yl]-1H-pyrazolo[3,4-b]pyrazin-6-yl}piperidin-4-yl)methanamine] | < 1000 nM
41 | Cc1ccc2c(c1)CCCN2c1n[nH]c2nc(N3CCC(C)(CN)CC3)cnc12 [Compound 45] | < 1000 nM
42 | c1ccc(CC2CCN(c3cnc4c(N5CCCc6ncccc65)n[nH]c4n3)C2)cc1 (stereo not shown) [Compound 146] | ≥ 10000 nM
43 | C[C@@H]1OCC2(CCN(c3cnc4c(N5CCCc6c5ccc(C#N)c6S(C)(=O)=O)n[nH]c4n3)CC2)[C@@H]1N [Compound 388] | 1000 to 10000 nM
44 | C[C@@H]1OCC2(CCN(c3cnc4c(N5CCN([C@H]6C[C@H](O)C6)c6cc(C#N)ccc65)n[nH]c4n3)CC2)[C@@H]1N [Compound 411] | < 1000 nM
45 | Cc1c(C#N)ccc2c1CCCN2c1n[nH]c2nc(N3CCC4(CC3)CO[C@@H](C)[C@H]4N)cnc12 [Compound 208] | < 1000 nM
46 | Cn1cc(-c2c(C#N)ccc3c2CCCN3c2n[nH]c3nc(N4CCC(C)(CN)CC4)cnc23)cn1 [Compound 131] | < 1000 nM
47 | CCCC1CCN(c2n[nH]c3nc(N4CCC(C)(CN)CC4)cnc23)c2ccccc21 (stereo not shown) [Compound 83] | < 1000 nM
48 | CC1(N)CCN(c2cnc3c(Sc4cc[nH]c(=O)c4Cl)n[nH]c3n2)CC1 [Compound 477, 4-((6-(4-amino-4-methylpiperidin-1-yl)-1H-pyrazolo[3,4-b]pyrazin-3-yl)thio)-3-chloropyridin-2(1H)-one] | < 1000 nM
49 | CC1(N)CCN(c2cnc3c(Oc4cnccc4Cl)n[nH]c3n2)CC1 [Compound 509, 1-(3-((4-Chloropyridin-3-yl)oxy)-1H-pyrazolo[3,4-b]pyrazin-6-yl)-4-methylpiperidin-4-amine hydrochloride] | 1000 to 10000 nM
